In patent publication EP1351977B1, “ANTIMICROBIAL PSEUDOPEPTIDES” (INSTITUT NATIONAL DE LA RECHERCHE AGRONOMIQUE (INRA), priority 2001, dated 2004):
Where two headings read alike, the source gives them in different places. Ends that are not written are not given here.

How the values were obtained:
Type in all cases: cell-based
Serratia entomophila = experiment: Bacterial growth inhibition test in Petri dish (solid medium), MIC; conditions: MIC extrapolated from inhibition diameter vs log10 concentration
Escherichia coli CIP548 = experiment: as above; conditions: MIC extrapolated from inhibition diameter vs log10 concentration
[1] = test system: Proteus vulgaris CIP58.60; experiment: as above; conditions: MIC extrapolated from inhibition diameter vs log10 concentration
Pseudomonas fluorescens = experiment: as above; conditions: MIC extrapolated from inhibition diameter vs log10 concentration
Klebsiella pneumoniae = experiment: as above; conditions: MIC extrapolated from inhibition diameter vs log10 concentration
Salmonella sp. = experiment: as above; conditions: MIC extrapolated from inhibition diameter vs log10 concentration
Protocol: Deux tests ont été utilisés pour mesurer l'activité antibactérienne des pseudopeptides, un test d'inhibition de la croissance bactérienne en microplaques (de 96 puits) en milieu liquide et un test d'inhibition de la croissance bactérienne en boîte de Pétri en milieu solide. • * Test en microplaques: La culture bactérienne à tester est prélevée en phase exponentielle, puis diluée au 1/500^ème dans du milieu liquide TSB frais. Chaque puits de la microplaque est rempli avec 100 µl de suspension bactérienne diluée. Dans le premier puits, 100 µl de l'échantillon de pseudopeptide à tester est ajouté à la suspension bactérienne, puis l'échantillon est dilué de 2 en 2 en transférant d'un puits à l'autre 100 µl de suspension. La lecture de la microplaque se fait en mesurant la densité optique à […] (DO600nm) après 24h d'incubation à 28°C ou 37°C selon les bactéries cibles. Connaissant la concentration en pseudopeptide de l'échantillon de départ, ce test permet de déterminer la valeur de la CMI (Concentration Minimale d'Inhibition de la croissance bactérienne). Dans ce test, la CMI correspond à la concentration de l'échantillon pour lequel la DO600nm est inférieure à celle du témoin de culture. • * Test en boîte de Pétri: La culture bactérienne à tester est prélevée en phase exponentielle, puis incorporée à 10 ml d'une gélose dite "sous-couche" (Agarose 1% poids/vol; NaCl 100 mM; Trypcase 0.03 % poids/vol; Tampon phosphate 10 mM pH7.4) à raison de 2.10^5 bactéries/ml. Le mélange est coulé dans une boîte de Pétri ordinaire. 9 puits d'environ 10 µl de volume sont formés dans la "sous-couche" à l'aide d'un embout de pipette stérile de 10 ml. Ces puits sont remplis avec une série de dilutions des pseudopeptides à tester (concentration initiale 500 µg/ml, et dilution de deux en deux jusqu'à 1,95 µg/ml). Après diffusion à température ambiante pendant 2h, une gélose dite "sur-couche" (Agarose 1% wt/vol; Trypcase 6 % wt/vol; Tampon phosphate 10 mM pH7.4) est ajoutée sur la sous-couche à raison de 5 à 10 ml. Après solidification, l'ensemble est mis à incuber pendant une nuit. Le diamètre d'inhibition de la culture bactérienne autour de chaque puits est mesuré en mm; il existe une relation linéaire entre le diamètre d'inhibition et le log10 de la concentration en pseudopeptide qui permet de déterminer par extrapolation la valeur de la CMI.
Une première série de résultats a été obtenue en utilisant le test en boîte de Pétri vis-à-vis de bactéries non pathogènes issues de la collection de Travaux pratiques du laboratoire de Pathologie Comparée de l'Université de Montpellier (France). Dans cette série, les pseudopeptides des pics 5, 7, 8,10 et 11 ont été testés (Tableau 4).

Bacillus megaterium = experiment: as above; conditions: MIC extrapolated from inhibition diameter vs log10 concentration
Staphylococcus aureus = experiment: as above; conditions: MIC extrapolated from inhibition diameter vs log10 concentration
[2] = test system: Staphylococcus epidermidis; experiment: as above; conditions: MIC extrapolated from inhibition diameter vs log10 concentration
[3] = test system: Helminthosporium teres sp; experiment: Antifungal growth inhibition test in liquid medium
Septoria tritici sp = experiment: Antifungal growth inhibition test in liquid medium
Cladosporium myc = experiment: Antifungal growth inhibition test in liquid medium
Rhizoctonia solani myc = experiment: Antifungal growth inhibition test in liquid medium
Piricularia oryzae sp = test system: Piricularia oryzae sp
Cladosporium sp = experiment: Antifungal growth inhibition test in liquid medium
Alternaria brassicae = experiment: Antifungal growth inhibition test in liquid medium
Botrytis cinerea myc = experiment: Antifungal growth inhibition test in liquid medium
Streptococcus Gr. D = experiment: Bacterial growth inhibition test in Petri dish (solid medium), MIC; conditions: MIC extrapolated from inhibition diameter vs log10 concentration
Botrytis cinerea sp = experiment: Antifungal growth inhibition test in liquid medium
Phytophthora myc = experiment: Antifungal growth inhibition test in liquid medium
Source text: (§1) Les composés des pics 5, 7 et 8 de la figure 1 ont été testées vis-à-vis d'un ensemble de champignons phytopathogènes. Trois doses (10, 20, et 40 ppm) ont été employées pour chacun des composés.
(§2) L'activité antifongique a été détectée par un test d'inhibition de croissance en milieu liquide. Les spores des champignons à tester ont été mises en suspension dans un milieu de culture de type "Pomme de terre-Glucose". De préférence, on utilise 12 g de milieu Potato Dextrose Broth (Difco) pour 1 litre d'eau déminéralisée. Deux antibiotiques ont été rajoutés au milieu de culture: la tétracycline (concentration finale de 10 µg/ml) et la céfotaxime (100 µg/ml). On dépose 10 µl de chaque composé à tester dans des plaques de microtitration en présence de 90 µl de milieu de culture contenant les spores (à une concentration finale de 10^4 spores/ml). L'incubation a été réalisée en chambre humide à 30°C durant 48 heures. La croissance fongique a été observée au microscope photonique après 24 h et quantifiée après 48 heures par mesure de l'absorbance à 600 nm à l'aide d'un spectrophotomètre lecteur de plaque de microtitration. L'activité des composés contre les champignons phytopathogènes est exprimée par un pourcentage d'inhibition de croissance correspondant à 100 x (1 - absorbance avec produit/ absorbance du témoin sans produit), l'absorbance étant mesurée à 600 nm, 5 jours après le début de l'expérience.

Fusarium culmorum sp = experiment: Antifungal growth inhibition test in liquid medium
Source text: as §1, §2

Substance: Composé 10: pseudopeptide du pic n° 10 de Xenorhabdus nematophilus F1; Famille 2: Lys Lys Lys Lys Arg Gly; 1094 Da; structure en Figure 3 (KKKKRG; also: pseudopeptide modifications, not given here)
- CMI (Serratia entomophila): 15 µg/mL
- CMI (Escherichia coli CIP548): 7,5 µg/ml
- CMI [1]: 200 µg/mL
- CMI (Pseudomonas fluorescens): 1,5 µg/ml
- CMI (Klebsiella pneumoniae): 15 µg/mL
- CMI (Salmonella sp.): 30 µg/mL
- CMI (Bacillus megaterium): 0,75 µg/ml
- CMI (Staphylococcus aureus): 7,5 µg/ml

Substance: Composé 5: pseudopeptide du pic n° 5 (HPLC, Figure 1) de Xenorhabdus nematophilus F1; Famille 1: Lys Lys Lys Lys Lys Gly; 1052 Da (KKKKKG; also: pseudopeptide modifications)
- CMI (Serratia entomophila): 60 µg/mL
- CMI [2]: 30 µg/mL
- CMI (Escherichia coli CIP548): 15 µg/mL
- pourcentage d'inhibition de croissance ([3]; 10 ppm): 70%
- pourcentage d'inhibition de croissance ([3]; 20 ppm): 91%
- pourcentage d'inhibition de croissance ([3]; 40 ppm): 95%
- pourcentage d'inhibition de croissance (Septoria tritici sp; 10 ppm): 88%
- pourcentage d'inhibition de croissance (Septoria tritici sp; 20 ppm): 88%
- pourcentage d'inhibition de croissance (Septoria tritici sp; 40 ppm): 85%
- CMI [1]: 200 µg/mL
- CMI (Pseudomonas fluorescens): 3 µg/mL
- CMI (Klebsiella pneumoniae): 30 µg/mL
- CMI (Salmonella sp.): 30 µg/mL
- CMI (Bacillus megaterium): 0,75 µg/ml
- pourcentage d'inhibition de croissance (Cladosporium myc; 10 ppm): 89%
- pourcentage d'inhibition de croissance (Cladosporium myc; 20 ppm): 90%
- pourcentage d'inhibition de croissance (Cladosporium myc; 40 ppm): 89%
- pourcentage d'inhibition de croissance (Rhizoctonia solani myc; 10 ppm): 9.7%
- pourcentage d'inhibition de croissance (Rhizoctonia solani myc; 20 ppm): 85%
- pourcentage d'inhibition de croissance (Rhizoctonia solani myc; 40 ppm): 93%
- pourcentage d'inhibition de croissance (Piricularia oryzae sp; 10 ppm): 18%
- pourcentage d'inhibition de croissance (Piricularia oryzae sp; 20 ppm): 22%
- pourcentage d'inhibition de croissance (Piricularia oryzae sp; 40 ppm): 45%
- pourcentage d'inhibition de croissance (Cladosporium sp; 10 ppm): 94%
- pourcentage d'inhibition de croissance (Cladosporium sp; 20 ppm): 94%
- pourcentage d'inhibition de croissance (Cladosporium sp; 40 ppm): 94%
- pourcentage d'inhibition de croissance (Alternaria brassicae; 10 ppm): 82%
- pourcentage d'inhibition de croissance (Alternaria brassicae; 20 ppm): 84%
- pourcentage d'inhibition de croissance (Alternaria brassicae; 40 ppm): 83%
- pourcentage d'inhibition de croissance (Botrytis cinerea myc; 10 ppm): 21%
- pourcentage d'inhibition de croissance (Botrytis cinerea myc; 20 ppm): 34%
- pourcentage d'inhibition de croissance (Botrytis cinerea myc; 40 ppm): 60%
- CMI (Streptococcus Gr. D): 200 µg/mL
- pourcentage d'inhibition de croissance (Botrytis cinerea sp; 10 ppm): 38%
- pourcentage d'inhibition de croissance (Botrytis cinerea sp; 20 ppm): 95%
- pourcentage d'inhibition de croissance (Botrytis cinerea sp; 40 ppm): 95%
- CMI (Staphylococcus aureus): 7,5 µg/ml
- pourcentage d'inhibition de croissance (Phytophthora myc; 10 ppm): 79%
- pourcentage d'inhibition de croissance (Phytophthora myc; 20 ppm): 78%
- pourcentage d'inhibition de croissance (Phytophthora myc; 40 ppm): 77%
- pourcentage d'inhibition de croissance (Fusarium culmorum sp; 10 ppm): 96%
- pourcentage d'inhibition de croissance (Fusarium culmorum sp; 20 ppm): 96%
- pourcentage d'inhibition de croissance (Fusarium culmorum sp; 40 ppm): 96%

Substance: Polymixine [reference compound]
- CMI [2]: 20 µg/mL
- CMI (Escherichia coli CIP548): 0,25 µg/ml
- CMI [1]: 50 µg/mL
- CMI (Salmonella sp.): 0,5 µg/ml
- CMI (Staphylococcus aureus): 20 µg/mL

Substance: Composé 11: pseudopeptide du pic n° 11 de Xenorhabdus nematophilus F1; Famille 1: Lys Lys Lys Lys Lys Gly; 1080 Da; isomère de masse du pic 7 (KKKKKG; also: pseudopeptide modifications, not given here)
- CMI (Serratia entomophila): 30 µg/mL
- CMI (Escherichia coli CIP548): 15 µg/mL
- CMI [1]: 200 µg/mL
- CMI (Pseudomonas fluorescens): 1,5 µg/ml
- CMI (Klebsiella pneumoniae): 30 µg/mL
- CMI (Salmonella sp.): 15 µg/mL
- CMI (Bacillus megaterium): 0,75 µg/ml
- CMI (Staphylococcus aureus): 7,5 µg/ml

Substance: Composé 7: pseudopeptide du pic n° 7 de Xenorhabdus nematophilus F1; Famille 2: Lys Lys Lys Lys Arg Gly; 1080 Da; isomère de masse du pic 11 (KKKKRG; also: pseudopeptide modifications)
- CMI (Serratia entomophila): 60 µg/mL
- CMI (Escherichia coli CIP548): 15 µg/mL
- pourcentage d'inhibition de croissance ([3]; 10 ppm): 33%
- pourcentage d'inhibition de croissance ([3]; 20 ppm): 47%
- pourcentage d'inhibition de croissance ([3]; 40 ppm): 80%
- pourcentage d'inhibition de croissance (Septoria tritici sp; 10 ppm): 0%
- pourcentage d'inhibition de croissance (Septoria tritici sp; 20 ppm): 86%
- pourcentage d'inhibition de croissance (Septoria tritici sp; 40 ppm): 89%
- CMI [1]: 100 µg/mL
- CMI (Pseudomonas fluorescens): 1,5 µg/ml
- CMI (Klebsiella pneumoniae): 30 µg/mL
- CMI (Salmonella sp.): 15 µg/mL
- CMI (Bacillus megaterium): 1,5 µg/ml
- pourcentage d'inhibition de croissance (Cladosporium myc; 10 ppm): 0%
- pourcentage d'inhibition de croissance (Cladosporium myc; 20 ppm): 40%
- pourcentage d'inhibition de croissance (Cladosporium myc; 40 ppm): 91%
- pourcentage d'inhibition de croissance (Rhizoctonia solani myc; 10 ppm): 6%
- pourcentage d'inhibition de croissance (Rhizoctonia solani myc; 20 ppm): 7%
- pourcentage d'inhibition de croissance (Rhizoctonia solani myc; 40 ppm): 64%
- pourcentage d'inhibition de croissance (Piricularia oryzae sp; 10 ppm): 12%
- pourcentage d'inhibition de croissance (Piricularia oryzae sp; 20 ppm): 15%
- pourcentage d'inhibition de croissance (Piricularia oryzae sp; 40 ppm): 21%
- pourcentage d'inhibition de croissance (Cladosporium sp; 10 ppm): 74%
- pourcentage d'inhibition de croissance (Cladosporium sp; 20 ppm): 95%
- pourcentage d'inhibition de croissance (Cladosporium sp; 40 ppm): 95%
- pourcentage d'inhibition de croissance (Alternaria brassicae; 10 ppm): 25%
- pourcentage d'inhibition de croissance (Alternaria brassicae; 20 ppm): 47%
- pourcentage d'inhibition de croissance (Alternaria brassicae; 40 ppm): 83%
- pourcentage d'inhibition de croissance (Botrytis cinerea myc; 10 ppm): 0%
- pourcentage d'inhibition de croissance (Botrytis cinerea myc; 20 ppm): 6%
- pourcentage d'inhibition de croissance (Botrytis cinerea myc; 40 ppm): 34%
- pourcentage d'inhibition de croissance (Botrytis cinerea sp; 10 ppm): 53%
- pourcentage d'inhibition de croissance (Botrytis cinerea sp; 20 ppm): 12%
- pourcentage d'inhibition de croissance (Botrytis cinerea sp; 40 ppm): 83%
- CMI (Staphylococcus aureus): 15 µg/mL
- pourcentage d'inhibition de croissance (Phytophthora myc; 10 ppm): 71%
- pourcentage d'inhibition de croissance (Phytophthora myc; 20 ppm): 81%
- pourcentage d'inhibition de croissance (Phytophthora myc; 40 ppm): 78%
- pourcentage d'inhibition de croissance (Fusarium culmorum sp; 10 ppm): 66%
- pourcentage d'inhibition de croissance (Fusarium culmorum sp; 20 ppm): 97%
- pourcentage d'inhibition de croissance (Fusarium culmorum sp; 40 ppm): 97%
